Assay results reported in patent US11505536B2, “Dihydroorotate dehydrogenase inhibitors” (Janssen Biotech, Inc., priority 2019, dated 2022).

What was measured:
human DHODH = human DHODH (Homo sapiens (Human), UniProt Q02127); assay: DHODH Enzymatic Assay; format: biochemical; conditions: purified human DHODH, DCIP absorbance, end-point mode; read-out: hDHODH IC50
Experimental: The following assay is referred to herein as the “DHODH Enzymatic Assay.” To detect DHODH enzyme activities, dichloroindophenol (DCIP) is added as the final electron acceptor in the assay. DCIP can accept electrons from the reduced coenzyme Q generated in the assay, or from dihydroorotate (DHO) via FMN by binding presumably to the ubiquinone pocket. DCIP solutions are blue, with an intense absorbance around 600 nm, but becomes colorless upon reduction (J. Biol. Chem. (1986) 261, 11386). The assay buffer contained […], pH 7.5, 150 mM NaCl, 0.5 mM EDTA, and 0.1% Triton X-100 in MilliQ water. Substrate consisting of 20 mM DHO, 5 mM CoQ6, and 1 mM DCIP in assay buffer, initiates the reaction. The assay is run in end-point mode by quenching the reaction with the potent DHODH inhibitor brequinar. Absorbance measurements were obtained using the BMG Phera Star plate-reading spectrophotomer. Purified human DHODH was purchased from Proteros (cat. No. PR-0044). Chemicals were purchased from Sigma-Aldrich, Teknova, and Avanti Polar Lipids. Liquid handling was performed using Labcyte Echo and Formulatrix Tempest.

[1] = system: MOLM-13 cells (human acute myeloid leukemia cells); assay: MOLM-13 Cellular Assay; format: cell-based; conditions: 72 hours exposure, cell viability by CellTiter-Glo
Experimental: The following assay is referred to herein as the “MOLM-13 Cellular Assay.” MOLM-13 cells (human acute myeloid leukemia cells) were obtained from DSMZ and were maintained in RPMI 1640+Glutamax+25 mM HEPES (Invitrogen, catalog number 72400) supplemented with 10% heat inactivated fetal bovine serum (FBS; Invitrogen, catalog number 16140). The day prior to assay set-up, cells were pelleted, resuspended in fresh media, counted, and cells were plated at 0.4×10^6 cell/mL in a T150 flask. On the day of the assay, cells were pelleted, resuspend in fresh media, counted and seeded at 5,000 cells/well in white opaque 96-well tissue culture treated microplates (Perkin Elmer, catalog number 6005680). Cells were exposed to different concentrations of test compounds at 37° C., 5% CO2 for 72 hours immediately after seeding. Cell viability was acquired on a Perkin Elmer Envision 2104 multilabel reader using the CellTiter-Glo assay (Promega) according to the manufacturer's instructions.

human DHODH, sequence (Q02127 whole entry): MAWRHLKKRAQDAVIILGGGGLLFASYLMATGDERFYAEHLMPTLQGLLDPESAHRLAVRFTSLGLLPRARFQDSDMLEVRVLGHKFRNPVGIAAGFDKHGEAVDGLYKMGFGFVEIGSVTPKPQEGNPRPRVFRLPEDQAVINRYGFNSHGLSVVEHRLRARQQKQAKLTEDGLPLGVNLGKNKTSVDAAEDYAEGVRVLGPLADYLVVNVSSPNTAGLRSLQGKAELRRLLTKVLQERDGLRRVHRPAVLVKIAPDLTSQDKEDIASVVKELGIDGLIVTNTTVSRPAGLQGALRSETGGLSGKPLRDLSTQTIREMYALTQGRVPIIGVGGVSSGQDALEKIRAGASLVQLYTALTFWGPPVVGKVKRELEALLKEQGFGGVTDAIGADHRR

Row | SMILES | IC50 (human DHODH) [nM] | IC50 ([1]; Homo sapiens, MOLM-13, 72 h) [nM] | IC50 [1] [nM]
1 | CCn1c(CO)nn(-c2cc3c(C(C)C)cn([C@H]4CCC[C@H]4C)c(=O)c3cc2F)c1=O (stereo in doubt) [Example 126, 6-(4-Ethyl-3-(hydroxymethyl)-5-oxo-4,5-dihydro-1H-1,2,4-triazol-1-yl)-7-fluoro-4-isopropyl-2-((1S*,2R*)-2-methylcyclopentyl)isoquinolin-1(2H)-one] | 1.32 | 1 | 
2 | C=C(C)c1cn(-c2cccc(F)c2)c(=O)c2ccc(-n3nc(CO)n(CC)c3=O)cc12 [Example 1, 6-(4-Ethyl-3-(hydroxymethyl)-5-oxo-4,5-dihydro-1H-1,2,4-triazol-1-yl)-2-(3-fluorophenyl)-4-(prop-1-en-2-yl)isoquinolin-1(2H)-one] | 9.89 | 6 | 
3 | CCn1c(CO)nn(-c2ccc3c(=O)n(-c4cccc(F)c4)cc(C(C)C)c3c2)c1=O [Example 2, 6-(4-Ethyl-3-(hydroxymethyl)-5-oxo-4,5-dihydro-1H-1,2,4-triazol-1-yl)-2-(3-fluorophenyl)-4-isopropylisoquinolin-1(2H)-one] | 75.9 | 40 | 
4 | CCn1c(CO)nn(-c2ccc3c(=O)n(-c4c(F)cccc4Cl)cc(C(C)C)c3c2)c1=O [Example 3, 2-(2-Chloro-6-fluorophenyl)-6-(4-ethyl-3-(hydroxymethyl)-5-oxo-4,5-dihydro-1H-1,2,4-triazol-1-yl)-4-isopropylisoquinolin-1(2H)-one] | 3.46 | 2 | 
5 | CCn1c(CO)nn(-c2ccc3c(=O)n(-c4cccc(F)c4)cc(-c4ccccc4)c3c2)c1=O [Example 4, 6-(4-Ethyl-3-(hydroxymethyl)-5-oxo-4,5-dihydro-1H-1,2,4-triazol-1-yl)-2-(3-fluorophenyl)-4-phenylisoquinolin-1(2H)-one] | 177 | 100 | 
6 | C=C(C)c1cn(-c2c(F)cccc2Cl)c(=O)c2ccc(-n3nc(CO)n(CC)c3=O)cc12 [Example 5, 2-(2-Chloro-6-fluorophenyl)-6-(4-ethyl-3-(hydroxymethyl)-5-oxo-4,5-dihydro-1H-1,2,4-triazol-1-yl)-4-(prop-1-en-2-yl)isoquinolin-1(2H)-one] | 1.29 | 0.9 | 
7 | C=C(c1cn(-c2c(F)cccc2Cl)c(=O)c2ccc(-n3nc(CO)n(CC)c3=O)cc12)C(F)(F)F [Example 6, 2-(2-Chloro-6-fluorophenyl)-6-(4-ethyl-3-(hydroxymethyl)-5-oxo-4,5-dihydro-1H-1,2,4-triazol-1-yl)-4-(3,3,3-trifluoroprop-1-en-2-yl)isoquinolin-1(2H)-one] | 1.94 | 1 | 
8 | CCn1c(CO)nn(-c2ccc3c(=O)n(-c4c(Cl)cccc4Cl)cc(C4(C)CC4)c3c2)c1=O [Example 7, 2-(2,6-Dichlorophenyl)-6-(4-ethyl-3-(hydroxymethyl)-5-oxo-4,5-dihydro-1H-1,2,4-triazol-1-yl)-4-(1-methylcyclopropyl)isoquinolin-1(2H)-one] | 0.965 | 2 | 
9 | C=C(C)c1cn(-c2c(Cl)cccc2Cl)c(=O)c2ccc(-n3nc(CO)n(CC)c3=O)cc12 [Example 8, 2-(2,6-Dichlorophenyl)-6-(4-ethyl-3-(hydroxymethyl)-5-oxo-4,5-dihydro-1H-1,2,4-triazol-1-yl)-4-(prop-1-en-2-yl)isoquinolin-1(2H)-one] | 0.839 | 0.7 | 
10 | CCn1c(CO)nn(-c2ccc3c(=O)n(-c4c(F)cccc4Cl)cc(C4CC4)c3c2)c1=O [Example 9, 2-(2-Chloro-6-fluorophenyl)-4-cyclopropyl-6-(4-ethyl-3-(hydroxymethyl)-5-oxo-4,5-dihydro-1H-1,2,4-triazol-1-yl)isoquinolin-1(2H)-one] | 11.5 | 5 | 
11 | CCn1c(CO)nn(-c2ccc3c(=O)n(-c4c(F)cccc4Cl)ccc3c2)c1=O [Example 10, 2-(2-Chloro-6-fluorophenyl)-6-(4-ethyl-3-(hydroxymethyl)-5-oxo-4,5-dihydro-1H-1,2,4-triazol-1-yl)isoquinolin-1(2H)-one] | 344 | 100 | 
12 | CCn1c(CO)nn(-c2cc3c(C(C)C)cn(-c4c(F)cccc4Cl)c(=O)c3cc2F)c1=O [Example 11, 2-(2-Chloro-6-fluorophenyl)-6-(4-ethyl-3-(hydroxymethyl)-5-oxo-4,5-dihydro-1H-1,2,4-triazol-1-yl)-7-fluoro-4-isopropylisoquinolin-1(2H)-one] | 0.222 | ≤ 0.2 | 0.2
13 | C=C(C)c1cn(-c2ccccc2C(F)(F)F)c(=O)c2ccc(-n3nc(CO)n(CC)c3=O)cc12 [Example 12, 6-(4-Ethyl-3-(hydroxymethyl)-5-oxo-4,5-dihydro-1H-1,2,4-triazol-1-yl)-4-(prop-1-en-2-yl)-2-(2-(trifluoromethyl)phenyl)isoquinolin-1(2H)-one] | 2.29 | 2 | 
14 | C=C(C)c1cn(-c2ccccc2C#N)c(=O)c2ccc(-n3nc(CO)n(CC)c3=O)cc12 [Example 13, 2-(6-(4-Ethyl-3-(hydroxymethyl)-5-oxo-4,5-dihydro-1H-1,2,4-triazol-1-yl)-1-oxo-4-(prop-1-en-2-yl)isoquinolin-2(1H)-yl)benzonitrile] | 5.49 | 6 | 
15 | C=C(C)c1cn(-c2ccccc2Cl)c(=O)c2ccc(-n3nc(CO)n(CC)c3=O)cc12 [Example 14, 2-(2-Chlorophenyl)-6-(4-ethyl-3-(hydroxymethyl)-5-oxo-4,5-dihydro-1H-1,2,4-triazol-1-yl)-4-(prop-1-en-2-yl)isoquinolin-1(2H)-one] | 0.724 | 0.4 | 
16 | C=C(C)c1cn(-c2ccccc2C)c(=O)c2ccc(-n3nc(CO)n(CC)c3=O)cc12 [Example 15, 6-(4-Ethyl-3-(hydroxymethyl)-5-oxo-4,5-dihydro-1H-1,2,4-triazol-1-yl)-4-(prop-1-en-2-yl)-2-(o-tolyl)isoquinolin-1(2H)-one] | 0.634 | 0.4 | 
17 | CCn1c(CO)nn(-c2ccc3c(=O)n(-c4ccc([N+](=O)[O-])cc4F)cc(I)c3c2)c1=O [Example 16, 6-(4-Ethyl-3-(hydroxymethyl)-5-oxo-4,5-dihydro-1H-1,2,4-triazol-1-yl)-2-(2-fluoro-4-nitrophenyl)-4-iodoisoquinolin-1(2H)-one] | 1180 | 300 | 
18 | CCn1c(CO)nn(-c2ccc3c(=O)n(-c4ccccc4Cl)nc(C(C)C)c3c2)c1=O [Example 17, 2-(2-Chlorophenyl)-6-(4-ethyl-3-(hydroxymethyl)-5-oxo-4,5-dihydro-1H-1,2,4-triazol-1-yl)-4-isopropylphthalazin-1(2H)-one] | 3.21 | 3 | 
19 | CCn1c(CO)nn(-c2ccc3c(=O)n(-c4cccc(F)c4)nc(C(C)C)c3c2)c1=O [Example 18, 6-(4-Ethyl-3-(hydroxymethyl)-5-oxo-4,5-dihydro-1H-1,2,4-triazol-1-yl)-2-(3-fluorophenyl)-4-isopropylphthalazin-1(2H)-one] | 80.7 | 30 | 
20 | CCn1c(CO)nn(-c2ccc3c(=O)n(-c4c(F)cccc4Cl)nc(C(C)C)c3c2)c1=O [Example 19, 2-(2-Chloro-6-fluorophenyl)-6-(4-ethyl-3-(hydroxymethyl)-5-oxo-4,5-dihydro-1H-1,2,4-triazol-1-yl)-4-isopropylphthalazin-1(2H)-one] | 4.96 | 4 | 
21 | CCc1nn(-c2cccc(F)c2)c(=O)c2ccc(-n3nc(CO)n(CC)c3=O)cc12 [Example 20, 4-Ethyl-6-(4-ethyl-3-(hydroxymethyl)-5-oxo-4,5-dihydro-1H-1,2,4-triazol-1-yl)-2-(3-fluorophenyl)phthalazin-1(2H)-one] | 83.5 | 100 | 
22 | CCc1nn(-c2ccccc2C)c(=O)c2ccc(-n3nc(CO)n(CC)c3=O)cc12 [Example 21, 4-Ethyl-6-(4-ethyl-3-(hydroxymethyl)-5-oxo-4,5-dihydro-1H-1,2,4-triazol-1-yl)-2-(o-tolyl)phthalazin-1(2H)-one] | 31.2 | 10 | 
23 | CCn1c(CO)nn(-c2cc3c(C(C)C)cn(-c4ccccc4C)c(=O)c3cc2F)c1=O [Example 22, 6-(4-Ethyl-3-(hydroxymethyl)-5-oxo-4,5-dihydro-1H-1,2,4-triazol-1-yl)-7-fluoro-4-isopropyl-2-(o-tolyl)isoquinolin-1(2H)-one] | 0.396 | ≤ 0.2 | 0.2
24 | CCn1c(CO)nn(-c2cc3c(C(C)C)cn(-c4c(C)ccnc4Cl)c(=O)c3cc2F)c1=O [Example 23, 2-(2-Chloro-4-methylpyridin-3-yl)-6-(4-ethyl-3-(hydroxymethyl)-5-oxo-4,5-dihydro-1H-1,2,4-triazol-1-yl)-7-fluoro-4-isopropylisoquinolin-1(2H)-one] | 3.57 | 3 | 
